Measurements taken from PMC6276119 (Biochemistry, 2016).

Target: AtHCT (Arabidopsis thaliana, UniProt Q9FI78)
Assay: X-ray crystal structure
Format: binding

AtHCT, sequence (Q9FI78 whole entry): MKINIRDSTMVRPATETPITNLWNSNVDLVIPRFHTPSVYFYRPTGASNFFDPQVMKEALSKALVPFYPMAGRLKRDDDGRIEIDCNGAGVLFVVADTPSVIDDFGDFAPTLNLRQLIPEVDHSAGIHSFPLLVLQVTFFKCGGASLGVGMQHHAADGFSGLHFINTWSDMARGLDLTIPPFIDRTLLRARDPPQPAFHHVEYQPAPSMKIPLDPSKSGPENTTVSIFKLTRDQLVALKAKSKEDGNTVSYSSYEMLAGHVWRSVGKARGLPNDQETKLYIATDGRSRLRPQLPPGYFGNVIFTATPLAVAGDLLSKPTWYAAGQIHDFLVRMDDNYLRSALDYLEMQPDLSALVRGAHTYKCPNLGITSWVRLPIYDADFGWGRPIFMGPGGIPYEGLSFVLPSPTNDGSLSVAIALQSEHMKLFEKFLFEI

In the case of CC(C)(COP(=O)(O)OP(=O)(O)OC[C@H]1O[C@@H](n2cnc3c(N)ncnc32)[C@H](O)[C@@H]1OP(=O)(O)O)[C@@H](O)C(=O)NCCC(=O)NCCSC(=O)/C=C/c1ccc(O)cc1 [p-coumaroyl CoA], the “X-ray crystal structure (soaked crystal)” value (soaked with p-coumaroyl CoA in water) is reported as “apo-, p-coumaroyl CoA-bound, and p-coumaroyl shikimate-bound AtHCT”.
With O=C(/C=C/c1ccc(O)cc1)O[C@@H]1CC(C(=O)O)=C[C@@H](O)[C@H]1O [p-coumaroylshikimate] the “X-ray crystal structure (soaked crystal)” value (acyl acceptor site, soaked with p-coumaroylshikimate in DMSO) was “apo-, p-coumaroyl CoA-bound, and p-coumaroyl shikimate-bound AtHCT”.
